# Experimental data from patent publication US20110262490A1, “POLYMER-AGENT CONJUGATES, PARTICLES, COMPOSITIONS, AND RELATED METHODS OF USE” (priority 2009, published 2011).
# “And” between values parts separate entries of the source, which are not always exact repeats. Identical values can stand only once. Like-named read-outs stand apart in the source and are kept apart here.
# How the values were obtained:
# B16.F10 tumor [1] = assay: Efficacy and tolerability in B16.F10 murine melanoma model (Example 43); assay type: in vivo, mouse
# Experimental: Refer to table for detailed description of formulations.
# Tumor volume was calculated with the following equation: (width×width×length)/2 mm^3.
# HCT-116 tumor = assay: In vivo efficacy in HCT-116 colon xenograft model (Example 44); design: species or system mouse; conditions: 30 mg/kg IV weekly×2
# Experimental: HCT-116 cells were grown in culture to confluency in McCoy's 5a medium containing 10% FBS and 1% penicillin/streptomycin and then resuspended in McCoy's 5a (passage 4). This suspension of HCT-116 cells (density=3.7×10^6 cells/mL) was implanted subcutaneously above the right hind leg of male CD-1 nude mice on day 1.
# SK-OV-3 tumor = assay: In vivo efficacy in SK-OV-3 ovarian human xenograft model (Example 45); design: species or system mouse
# Experimental: SK-OV-3 cells were grown in culture to confluency in RPMI medium containing 10% FBS and 1% penicillin/streptomycin and then resuspended in RPMI (passage 4) for implantation into mice. This suspension of SK-OV-3 cells (density=30×10^6 cells/mL) was implanted into the mammary gland of female CD-1 nude mice on Day 1. […]
# MDA-MB-435 tumor [2] = assay: In vivo efficacy in MDA-MB-435 melanoma human xenograft model (Example 46); design: species or system mouse
# Experimental: MDA-MB-435 cells were grown in culture to confluency in RPMI medium containing 10% FBS and 1% penicillin/streptomycin and then resuspended in RPMI (passage 4) for implantation into mice. A volume of 0.1 mL containing 4.0×10^6 cells MDA-MB-435 cells were implanted into the mammary gland of female CD-1 nude mice on Day 1.
# [3] = Tolerability in normal male C57BL/6 non-tumor-bearing mice (Example 47); assay type: in vivo, mouse; conditions: for Ataxia: n=5
# Experimental: Treatments were administered intravenously on a q7dx2 schedule, i.e., two treatments seven days apart (the first treatment was on Day one). The study ended on Day 14, six days after the 2nd treatment. Blood was collected for complete blood count (CBC) and serum chemistry. Leg muscles were collected so that nerve degeneration could be assessed from the sciatic nerve.
# murine melanoma tumor = assay: Efficacy and survival in aggressive murine melanoma model at MTD (Example 92); assay type: in vivo, mouse; conditions: every other week dosing at MTD
# Experimental: Thus, the sustained release properties of a particle according to exemplary particle 1 supports less frequent dosing of patients. Methods: Tumor-bearing mice were injected with a particle according to exemplary particle 1 or docetaxel at their respective MTD. See, for example, FIGS. 6a and 6b.
# MDA-MB-435 tumor [4] = assay: MDA-MB-435 breast xenograft model, delayed treatment (Example 93); assay type: in vivo, mouse
# Description: See, for example, FIG. 7.
# B16.F10 tumor [5] = assay: Efficacy and tolerability in mouse melanoma model B16.F10 (Example 58)
# Experimental: B16.F10 cells were grown in culture to 85-90% confluency in MEM-alpha medium supplemented with 10% fetal bovine serum (FBS) and 1% penicillin/streptomycin. Cells were removed from the culture flask using 0.05% trypsin (passage=4), re-suspended in PBS (density=10×10^6 cells/mL) and were implanted subcutaneously (1×10^6 cells in 100 μL MEM-alpha medium/mouse) into the right flank of male C57BL/6 mice on day 1.
# Body weight and tumor volume were measured three times a week. In addition, animals were also monitored for any morbidity and adverse effects three times a week.
# Tumor volume was calculated with (width×width×length)/2 mm^3 formula. Efficacy was determined by tumor growth inhibition (TGI), tumor growth delay (TGD) and survival. Tumor growth inhibition (TGI) is represented as % and calculated as (1−(treated tumor volume/control tumor volume))×100 when the control group mean tumor volume reached ≧3000 mm^3. Tumor growth delay (TGD) is calculated by subtracting the day when the vehicle treated group reached the maximum tumor size 3000 mm^3 from the day when the treatment group tumor size reached 3000 mm^3. The criterion at which a mouse was removed from the study was tumor volume ≧3000 mm^3.
# [6] = 15 mg/kg IV q3dq4dx3, listed as Docetaxel
# [7] = 15 mg/kg IV three times, once every week
# [8] = 30 mg/kg IV 1/biwk×3, listed as free docetaxel
# [9] = 30 mg/kg IV 1/wk×3, listed as free docetaxel
# 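For Day mean tumor volume endpoint (≧1000 mm^3) reached in this document: tumor volume and body weight recorded thrice weekly while dosing and twice weekly afterwards, with animals checked for morbidity and adverse effects on the same schedule.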
# 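For Hind limb paralysis in this document: tumor volume and body weight recorded thrice weekly while dosing and twice weekly afterwards, with animals checked for morbidity and adverse effects on the same schedule.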
# Experimental for ADR-RES tumor: ADR-RES cells were grown in culture to 85-90% confluency in RPMI medium supplemented with 10% fetal bovine serum (FBS), 1% glutamine and 1% penicillin/streptomycin.
# The treatments were administered IV into the tail vein at a dose volume of 10 and 20 mL/kg for 30 and 60 mg/kg respectively, beginning on post-implantation day 47, when the mean tumor volume was ca. 150 mm^3. Body weight and tumor volume were measured for three times a week during the dosing period and twice a week thereafter. In addition, animals were also monitored for any morbidity and adverse effects for three times a week during the dosing period and twice a week thereafter.
# Tumor volume was calculated with (width×width×length)/2 mm^3 formula. Efficacy was determined by tumor growth inhibition (TGI), tumor growth delay (TGD) and survival. Tumor growth inhibition (TGI) is represented as % and calculated as (1−(treated tumor volume/control tumor volume))×100 when the control group mean tumor volume reached ≧1000 mm^3. Tumor growth delay (TGD) is calculated by subtracting the day when the vehicle treated group reached the maximum tumor size 1000 mm^3 from the day when the treatment group tumor size reached 1000 mm^3.
compound,measurement,setting,value
"CC(=O)O[C@@]12CO[C@@H]1C[C@H](O)[C@@]1(C)C(=O)[C@H](O)C3=C(C)[C@@H](OC(=O)[C@H](O)[C@@H](NC(=O)OC(C)(C)C)c4ccccc4)C[C@@](O)([C@@H](OC(=O)c4ccccc4)[C@H]21)C3(C)C [Free docetaxel, docetaxel]",Tumor growth inhibition (TGI),B16.F10 tumor [1]; 15 mg/kg IV q3dq4dx3,90%
same,Maximum body weight loss,B16.F10 tumor [1]; [6],11% and 12%
same,Tumor growth delay (TGD),B16.F10 tumor [1]; [6],11 days and 12 days
same,Maximum body weight loss,B16.F10 tumor [1]; 15 mg/kg IV q4dq3dx3,11%
same,Tumor growth delay (TGD),B16.F10 tumor [1]; 15 mg/kg IV q4dq3dx3,11 days
same,Tumor growth inhibition (TGI),B16.F10 tumor [1]; 15 mg/kg IV q4dq3dx3,90%
same,Maximum body weight loss,B16.F10 tumor [1]; [7],11%
same,Tumor growth delay (TGD),B16.F10 tumor [1]; [7],11 days
same,Tumor growth inhibition (TGI),B16.F10 tumor [1]; [7],approximately 90%
same,Maximum body weight loss,B16.F10 tumor [1]; 30 mg/kg IV q7dx3,11%
same,Tumor growth delay (TGD),B16.F10 tumor [1]; 30 mg/kg IV q7dx3,17 days
same,Tumor growth inhibition (TGI),B16.F10 tumor [1]; 30 mg/kg IV q7dx3,90%
same,Day tumor volume end point (3000 mm^3) reached,B16.F10 tumor [1]; 30 mg/kg q7dx3,37 days
same,Tumor growth delay (TGD),B16.F10 tumor [1]; 60 mg/kg IV q14dx2,11 days
same,Tumor growth inhibition (TGI),B16.F10 tumor [1]; 60 mg/kg IV q14dx2,71%
same,Maximum body weight loss,"B16.F10 tumor [1]; 60 mg/kg IV q14dx2, listed as Docetaxel",0%
same,Maximum body weight loss,"B16.F10 tumor [1]; 60 mg/kg IV q14dx2, listed as docetaxel",did not show any body weight loss
same,Day tumor volume end point (3000 mm^3) reached,B16.F10 tumor [1]; 60 mg/kg q14dx2,29 days
same,Maximum body weight loss,HCT-116 tumor,14%
same,Tumor growth inhibition (TGI),HCT-116 tumor,88%
same,TGD,HCT-116 tumor; end point 1000 mm^3,22 days
same,Tumor growth delay (TGD),SK-OV-3 tumor; 15 mg/kg IV weekly×2,18 days
same,Ataxia,SK-OV-3 tumor; 30 mg/kg IV weekly×2,did not cause ataxia
same,Maximum body weight loss,SK-OV-3 tumor; 30 mg/kg IV weekly×2,13%
same,Tumor growth delay (TGD),SK-OV-3 tumor; 30 mg/kg IV weekly×2,42 days
same,Body weight loss,SK-OV-3 tumor; 60 mg/kg IV weekly×2,greater than 20%
same,Maximum body weight loss,MDA-MB-435 tumor [2]; 15 mg/kg IV Days 21 and 28,10%
same,Maximum body weight loss,MDA-MB-435 tumor [2]; 30 mg/kg IV Days 21 and 28,14%
same,Ataxia,MDA-MB-435 tumor [2]; 30 mg/kg IV weekly×2,did not cause ataxia
same,Body weight loss,MDA-MB-435 tumor [2]; 60 mg/kg IV Days 21 and 28 (mean tumor 150 mm^3),greater than 20%
same,Ataxia,"MDA-MB-435 tumor [2]; 60 mg/kg IV weekly×2, listed as docetaxel",developed ataxia
same,Ataxia,"MDA-MB-435 tumor [2]; 60 mg/kg IV weekly×2, listed as free docetaxel",Ataxia was observed four days after the second treatment
same,Body weight above initial on Day 14,[3]; 30 mg/kg IV q7dx2,3%
same,Mice developing ataxia,[3]; 30 mg/kg q7dx2,no mice
same,Lymphocyte mean,"[3]; 30 mg/kg q7dx2, Day 14",4350 cells/μL
same,Neutrophil mean,"[3]; 30 mg/kg q7dx2, Day 14",556 cells/μL
same,WBC # mean,"[3]; 30 mg/kg q7dx2, Day 14",5.1 ×1000 cells/μL
same,Ataxia,[3]; 30 mg/kg q7dx2,0%
same,Body weight above initial on Day 14,[3]; 45 mg/kg IV q7dx2,2%
same,Lymphocyte mean,"[3]; 45 mg/kg q7dx2, Day 14",6780 cells/μL
same,Mice developing ataxia,"[3]; 45 mg/kg q7dx2, Day 14",One mouse
same,Neutrophil mean,"[3]; 45 mg/kg q7dx2, Day 14",752 cells/μL
same,WBC # mean,"[3]; 45 mg/kg q7dx2, Day 14",7.8 ×1000 cells/μL
same,Ataxia,[3]; 45 mg/kg q7dx2,20%
same,"Weight loss after second treatment, by end of study","[3]; 60 mg/kg IV q7dx2, Day 14",19%
same,Mice developing ataxia,[3]; 60 mg/kg q7dx2,Five out of five mice
same,Lymphocyte mean,"[3]; 60 mg/kg q7dx2, Day 14",5590 cells/μL
same,Neutrophil mean,"[3]; 60 mg/kg q7dx2, Day 14",470 cells/μL
same,WBC # mean,"[3]; 60 mg/kg q7dx2, Day 14",6.2 ×1000 cells/μL
same,Ataxia,[3]; 60 mg/kg q7dx2,100%
same,Effect on serum chemistry parameters,[3]; q7dx2,did not affect any serum chemistry parameter at doses up to 60 mg/kg
same,Tumor growth suppression,murine melanoma tumor,not sufficient to suppress tumor growth
same,Effect on tumors allowed to grow to 500 mm^3,MDA-MB-435 tumor [4],unable to suppress tumor growth over this time period
same,Day mean tumor volume endpoint (≧1000 mm^3) reached,ADR-RES tumor; 30 mg/kg IV 1/biwk×3,99 days
same,Day of 50% survival,ADR-RES tumor; 30 mg/kg IV 1/biwk×3,102 days
same,Hind limb paralysis,ADR-RES tumor; 30 mg/kg IV 1/biwk×3,did not cause any significant body weight loss (<10%) or hind limb paralysis
same,Increase in TGD,ADR-RES tumor; 30 mg/kg IV 1/biwk×3,0%
same,Maximum body weight loss,ADR-RES tumor; 30 mg/kg IV 1/biwk×3,9%
same,Tumor growth delay (TGD),ADR-RES tumor; 30 mg/kg IV 1/biwk×3,0 days
same,Tumor growth inhibition (% TGI),ADR-RES tumor; 30 mg/kg IV 1/biwk×3,0%
same,Tumor growth delay (TGD),ADR-RES tumor; [8],no TGD
same,Tumor growth inhibition (% TGI),ADR-RES tumor; [8],0%
same,Day mean tumor volume endpoint (≧1000 mm^3) reached,ADR-RES tumor; 30 mg/kg IV 1/wk×2,109 days
same,Day of 50% survival,ADR-RES tumor; 30 mg/kg IV 1/wk×2,106 days
same,Hind limb paralysis,ADR-RES tumor; 30 mg/kg IV 1/wk×2,did not cause any significant body weight loss (<10%) or hind limb paralysis
same,Increase in TGD,ADR-RES tumor; 30 mg/kg IV 1/wk×2,13%
same,Maximum body weight loss,ADR-RES tumor; 30 mg/kg IV 1/wk×2,6%
same,Tumor growth delay (TGD),ADR-RES tumor; 30 mg/kg IV 1/wk×2,7 days
same,Tumor growth inhibition (% TGI),ADR-RES tumor; 30 mg/kg IV 1/wk×2,23%
same,Tumor growth inhibition (% TGI),"ADR-RES tumor; 30 mg/kg IV 1/wk×2, listed as free docetaxel",23%
same,Hind limb paralysis,ADR-RES tumor; 60 mg/kg IV 1/biwk×3,severe hind limb paralysis
same,Maximum body weight loss,ADR-RES tumor; 60 mg/kg IV 1/biwk×3,21%
same,Day mean tumor volume endpoint (≧1000 mm^3) reached,ADR-RES tumor; 60 mg/kg IV 1/wk×2,106 days
same,Day of 50% survival,ADR-RES tumor; 60 mg/kg IV 1/wk×2,106 days
same,Hind limb paralysis,ADR-RES tumor; 60 mg/kg IV 1/wk×2,hind limb paralysis after the 2nd injection followed by recovery
same,Increase in TGD,ADR-RES tumor; 60 mg/kg IV 1/wk×2,7%
same,Maximum body weight loss,ADR-RES tumor; 60 mg/kg IV 1/wk×2,23%
same,Tumor growth delay (TGD),ADR-RES tumor; 60 mg/kg IV 1/wk×2,4 days
same,Tumor growth inhibition (% TGI),ADR-RES tumor; 60 mg/kg IV 1/wk×2,14%
same,Tumor growth inhibition (% TGI),"ADR-RES tumor; 60 mg/kg IV 1/wk×2, listed as free docetaxel",14%
same,Day of 0% survival,B16.F10 tumor [5]; 30 mg/kg 1/wk×3,45 days
same,Day of 50% survival,B16.F10 tumor [5]; 30 mg/kg 1/wk×3,40 days
same,Day mean tumor volume endpoint (≧3000 mm^3) reached,B16.F10 tumor [5]; 30 mg/kg IV 1/wk×3,43 days
same,Increase in TGD,B16.F10 tumor [5]; 30 mg/kg IV 1/wk×3,115%
same,Maximum body weight loss,B16.F10 tumor [5]; 30 mg/kg IV 1/wk×3,12%
same,Tumor growth delay (TGD),B16.F10 tumor [5]; 30 mg/kg IV 1/wk×3,23 days
same,Tumor growth inhibition (% TGI),B16.F10 tumor [5]; 30 mg/kg IV 1/wk×3,92%
same,Maximum body weight loss,B16.F10 tumor [5]; [9],did not cause any significant body weight loss
same,Tumor growth inhibition (% TGI),B16.F10 tumor [5]; [9],92%
